According to publication PMC10799935, “Discovery of a peripheral 5HT2A antagonist as a clinical candidate for metabolic dysfunction-associated steatohepatitis” (Nature Communications, 2024):
“And” between values parts separate entries of the source, which are not always exact repeats. Identical values can stand only once. “Also recorded” adds a separate entry of the source.

Tests used:
[1] = AMES test (mutagenic potential)
[2] = Hepatocyte stability test, monkey; assay type: in vitro ADME, cynomolgus monkey; settings: male, cryopreserved hepatocytes, pH 7.4, read-out: Hepatocyte stability (% remaining after 3 h)
Protocol: Hepatocyte incubations for the test compound (10 μM final concentration, n = 2 per each time point) were carried out in mouse, rat, dog, monkey and human cryopreserved hepatocytes, resuspended at a density of 0.5 million cells/ml of modified Krebs-Henseleit buffer (KHB). The information regarding the hepatocytes used in the experiment is as follows: liverPool® 10-donor mixed gender human (BioIVT, Cat.No. X008001, lot EAV), male cynomolgus monkey (BioIVT, Cat.No. M00305, lot COJ), male Beagle dog (BioIVT, Cat.No. M00205, lot USY), male Sprague Dawley rat (BioIVT, Cat.No. M00005, lot TQE) and male CD1 mouse (BioIVT, Cat.No.005052, lot LFF). In addition, the compound was also incubated with blank KHB. The final concentration of solvent (DMSO) was 0.1% of the final volume. The incubations were performed for 3 hours at 37°C and pH 7.4. Reactions were terminated at 0 and 180 minutes by the addition of 3 volumes of stop solution (acetonitrile/methanol (2:1, v/v) containing internal standard–diclofenac at 100 ng/ml). Samples (compound spiked buffer and compound spiked hepatocytes, as well as blank samples, i.e. hepatocytes with the same DMSO%) were then centrifuged and aliquots were transferred to 96-deep micronic tubes and frozen at -80 °C until LC-MS/MS analysis. […]

[3] = tested on: HFD-fed C57BL/6J mice; experiment: DIO mice: quantification of hepatic triglyceride; assay type: in vivo, mouse; settings: DIO mice; for Hepatic TG levels, Mean Diff. (Vehicle vs. treated): Dunnett's multiple comparisons test; for Hepatic TG Levels, TG per protein, group mean: PO, liver
Protocol: Liver tissues were homogenized in 5% NP-40 using FastPrep-24. To solubilize fat, the homogenates were heated to 95 °C for 5 min and cooled at 23 °C, and repeated. Triglyceride Reagent (Sigma-Aldrich) or DW was added and incubated at 37 °C for 30 min to hydrolyze TG into glycerol. For the colorimetric assay of hydrolyzed TG levels, samples were incubated with Free Glycerol Reagent (Sigma-Aldrich) at 37 °C for 5 min. Differences in absorbance at 540 nm between hydrolyzed or non-hydrolyzed TG were quantified using a glycerol standard (Sigma-Aldrich). […]

[4] = tested on: α-SMA; experiment: CDAHFD mice: α-SMA immunohistochemical staining; assay type: in vivo, mouse; design: α-SMA immunohistochemical staining (a-SMA area), individual mouse / α-SMA immunohistochemical staining (a-SMA area), Average: unit not given here; settings: for α-SMA immunohistochemical staining (a-SMA area), Average / α-SMA immunohistochemical staining (a-SMA area), individual mouse: CDAHFD mice; for α-SMA immunohistochemical staining (a-SMA area), Average: group average n=5, CDAHFD+Vehicle 6.348, Vehicle 0.808; for α-SMA immunohistochemical staining (a-SMA area), individual mouse: individual animals No. 1-5 (Fig.4f)
Text: C57BL/6 J male mice were purchased from the Japan SLC. Inc (Hamamatsu, Japan). Mice (5 weeks old) were fed Teklad Certitied Irradiated Global 18% protein rodent diet purchased from Dooyeol Biotech Co. Ltd (Seoul, South Korea) during the acclimation period. The liver fibrosis/inflammation-induced groups were CDAHFD-fed (A06071302, Research diet). […] All animal experiments complied with the relevant ethical regulations.
Mouse liver tissues were fixed in 4% formalin solution (Sigma–Aldrich, St. Louis, MO, USA) and embedded in paraffin. 4-μm-thick liver sections were deparaffinized in xylene, and rehydrated through descending grades of ethanol. To evaluate liver fibrosis, sections were stained with Sirius red solution and subjected to immunohistochemical staining. Tissue sections, after deparaffinization, underwent a 16-hour incubation in a solution containing 0.1% Direct Red 80 (365548, Sigma-Aldrich) dissolved in Picric acid (P-201, Spectrum Chemical, CA, USA) for Sirius red staining. The sections were briefly immersed in a 0.01 N HCl solution (1129, Ducksan, Republic of Korea) for 2 min. and then rinsed with distilled water for destaining. Subsequently, the sections underwent dehydration through […] grades of ethanol. Immunohistochemical staining was performed using the Polyview Plus HRP-DAB (anti-Rabbit) Kit (ENZ-KIT159-0150, ENZO Life Science, NY, USA) following the manufacturers’ instructions. Deparaffinized sections were boiled in IHC-TekTM Epitope Retrieval solution (IW-1100, IHCWORLD, MD, USA) for 45 min., cooled for 1 h, incubated in a 3% H2O2 solution (69355-0350, JUNSEI, Japan) for 15 min., washed, and then incubated overnight with primary antibodies (α-SMA, ab5694, Abcam, 1:500 dilution; TNF-α, ab6671, Abcam, 1:100 dilution and IL-1β, ab9722, Abcam, 1:100 dilution). Subsequently, the sections were treated with Polyview Plus HRP for 2 h and developed with DAB chromogen/substrate. Stained […] sections were confirmed by light microscopy (Olympus BX53 upright microscope, Tokyo, Japan). The degree of hepatic fibrosis and immunohistochemical staining was quantified by morphometric analysis of stained liver sections using NIH ImageJ software.

Cc1nc2n(c(=O)c1CCN1CCC(=C3c4ccc(Cl)cc4CCc4cccnc43)CC1)CCCC2O (stereo not drawn) [Compound 11c]
AMES [1]: didn’t show mutagenic potential; also recorded: Negative
remaining at 3 h, 10 μM [2]: 84.6%
Hepatic TG levels, Mean Diff. (Vehicle vs. treated) ([3]; 5mpk): 5.95 mg/g protein
Hepatic TG levels, Mean Diff. (Vehicle vs. treated) ([3]; 10mpk): 31.37 mg/g protein
Hepatic TG Levels, TG per protein, group mean ([3]; 5mpk): 79.94 mg/g protein
Hepatic TG Levels, TG per protein, group mean ([3]; 10mpk): 54.51 mg/g protein
hepatic TG concentration ([3]; vs vehicle): significant reduction; also recorded: decreased
α-SMA immunohistochemical staining (a-SMA area), Average ([4]; 11c 5 mpk): 2.563
α-SMA immunohistochemical staining (a-SMA area), individual mouse ([4]; 11c 5 mpk): 2.929 and 2.447 and 3.505 and 2.773 and 1.159
α-SMA immunohistochemical staining (a-SMA area), Average ([4]; 11c 10mpk): 3.310
α-SMA immunohistochemical staining (a-SMA area), individual mouse ([4]; 11c 10mpk): 3.665 and 3.079 and 3.824 and 3.446 and 2.538
α-SMA expression (immunohistochemical staining) ([4]; CDAHFD-fed 11c vs CDAHFD-fed vehicle group): significant decrease
